In patent publication US11859234B2, “Method of monitoring RNase L activity” (THE TRUSTEES OF PRINCETON UNIVERSITY, priority 2016, dated 2024):

Legend:
RNase L [1] = biological target: T1, RNase L (Homo sapiens, UniProt Q05823); experiment: RNA sequencing of RNase L cleavage products in permeabilized T47D cells stimulated with 2-5A; format: cell-based; design: endogenous in cells; conditions: 1 μM 2-5A for 3 minutes compared with 1 minute
T1 sequence (Q05823 1-741): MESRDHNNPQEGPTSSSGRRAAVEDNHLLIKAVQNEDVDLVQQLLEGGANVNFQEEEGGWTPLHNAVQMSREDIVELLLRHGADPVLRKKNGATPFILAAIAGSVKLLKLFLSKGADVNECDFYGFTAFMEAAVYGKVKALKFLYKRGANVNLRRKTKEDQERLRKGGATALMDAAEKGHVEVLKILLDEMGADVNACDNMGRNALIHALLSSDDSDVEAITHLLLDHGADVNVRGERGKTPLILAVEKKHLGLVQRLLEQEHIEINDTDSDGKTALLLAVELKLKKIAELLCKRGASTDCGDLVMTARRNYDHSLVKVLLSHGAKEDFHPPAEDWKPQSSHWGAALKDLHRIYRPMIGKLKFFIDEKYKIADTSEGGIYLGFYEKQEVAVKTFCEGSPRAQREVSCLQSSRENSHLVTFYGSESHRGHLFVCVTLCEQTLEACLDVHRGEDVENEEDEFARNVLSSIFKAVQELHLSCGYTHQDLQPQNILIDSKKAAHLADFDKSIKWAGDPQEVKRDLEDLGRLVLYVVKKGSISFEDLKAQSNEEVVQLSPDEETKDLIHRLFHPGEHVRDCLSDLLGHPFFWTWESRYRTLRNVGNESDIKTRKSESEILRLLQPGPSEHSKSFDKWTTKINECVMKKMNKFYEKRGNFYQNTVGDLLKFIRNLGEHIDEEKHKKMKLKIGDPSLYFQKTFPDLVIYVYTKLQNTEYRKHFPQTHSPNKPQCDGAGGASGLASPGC
Experimental: Initially, approximately 500 ng-1 μg miRvana purified small RNAs is ligated to the ligation adapter (5′-[…]-3′(SEQ ID NO: 1), underlined portion is RNA) using RtcB. It is contemplated that the adaptor has a 3′-desthiobiotin modification. The ligated RNAs are separated from free adapter by resolving on 10% urea PAGE by staining gel and excising all RNA larger than the free adapter. RNA is eluted from gel slices overnight at 4° C. in TE buffer pH 7.5 supplemented with 0.05% Triton X-100. Glycogen is added to RNAs and precipitated with 3 volumes of 100% ethanol and 1/10 volume 3M sodium acetate pH 5.2. The sample is then incubated on dry ice for 30 minutes. […]
Libraries are assessed on an Agilent High Sensitivity DNA chip, and equimolar amounts of libraries pooled and resolved on 6% native PAGE and visualized by gel staining. […] Libraries are now ready for sequencing on the Illumina HiSeq 2000 platform.
The RNA sequencing experiments were also carried out in HeLa cells that overexpress RNase L (RNLoe) and in T47D cells derived from human breast cancer and that have been permeablized and stimulated for 1 minute or 3 minutes with 1 μM 2-5A, which specifically activates RNase L but not other pathways. Results of the primary types of cleavage products detected, e.g., tRNA-His, tRNA-Pro, RNY1, RNY3, RNY4 and RNY5, were similar. […]

RNase L [2] = biological target: T1, RNase L; experiment: qPCR detection of tRNA His-GUG-36 RNase L cleavage product in poly I:C stimulated HeLa cells; format: cell-based; design: endogenous in cells; host or cells: HeLa cells; conditions: total RNA, RtcB ligation, qPCR with His-GUG-36-2 primer, ΔΔCt method (FIG. 4F)
Experimental: Reaction components useful in the ligation reaction include the following: 2-500 ng purified RNA, 30 μM RtcB ligase, 1 U/μL RNase inhibitor, 10 μM ligation adapter, 100 μM GTP, 20 mM HEPES pH 7.5, 2 mM MnCl2, 110 mM NaCl, 4 mM DTT, 2.2% glycerol (carried into the reaction with RtcB and RNase inhibitor). The standard reaction volume is 10 μL with incubation for 1 hour at 37° C.
After incubation 1 μL of 33 mM EDTA is added followed by a brief room temperature incubation (usually 5-10 minutes) giving a final concentration of EDTA of 3 mM. EDTA is added to chelate Mn^2+ ions that might interfere in downstream steps as well as to stop the ligation reaction.
1 μL of EDTA quenched ligation reaction is mixed with dNTPs and 10 picomoles (pmol) of RT primer in 10 μL volume. The mixture is incubated at 65° C. for 5 minutes then placed on ice (optional). The remaining components are added for a 20 μL reverse transcription reaction: RT buffer, 0.2 U μL RNase inhibitor, Reverse transcriptase (added last), and H2O for 20 μL final volume and incubated according to the RT manufacturer's specifications. […]
For the qPCR, total purified RNA from non-stimulated and poly I:C stimulated HeLa cells was serially diluted, ligated to the adapter with RtcB, reverse transcribed, and detected by qPCR using the His-GUG-36-2 primer and qPCR reverse primer.

Substance | RNA cleavage profile of RNase L products (RNase L [1]) | number of tRNA His-GUG-36-2 cleavage products compared to non-stimulated cells (RNase L [2])
2′,5′-oligoadenylate [2-5A] | enhanced induction of RNA cleavage of the same products | 
polyinosinic-polycytidylic acid [polyI:C] |  | significantly increased
